These results are taken from ChEMBL document CHEMBL4414609, “High-Affinity Alkynyl Bisubstrate Inhibitors of Nicotinamide N-Methyltransferase (NNMT)” (J Med Chem, 2019).

Series [1] has as its target T1, Nicotinamide N-methyltransferase (Homo sapiens, UniProt P40261).
T1 sequence (P40261 whole entry): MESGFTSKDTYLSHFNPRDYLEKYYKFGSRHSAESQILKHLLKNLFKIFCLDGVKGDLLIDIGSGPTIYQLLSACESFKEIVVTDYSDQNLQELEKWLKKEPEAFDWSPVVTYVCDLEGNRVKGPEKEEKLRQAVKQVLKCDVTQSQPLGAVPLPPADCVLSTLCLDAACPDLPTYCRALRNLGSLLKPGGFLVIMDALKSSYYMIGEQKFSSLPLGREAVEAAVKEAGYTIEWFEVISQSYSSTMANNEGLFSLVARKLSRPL
As to the kind of experiment: Inhibition of N-terminal His6-tagged wild type human NNMT expressed in Escherichia coli NiCo21(DE3) assessed as reduction in 1-methylquinolinium level using quinoline as substrate in presence of SAM and measured every 27 seconds for 5.5 mins by fluorescence-based assay. To be noted: read-out: pKi (converted).

The subject of a further series is U2OS. Put plainly: Cytotoxicity against human U2OS cells at 100 uM after 48 hrs by CellTiter-Glo luminescent cell viability. The series is classed as cell-based. In general terms: In ATP-based viability assays light output follows the ATP content of the culture.
Series [2] is described as follows: Permeability across apical to basolateral side in human Caco2 cells after 60 mins by HPLC-MS/MS analysis. The series is classed as ADME, cell-based. The settings on record: caco-2, 1 h.
The target of series [3] is T2, Nicotinamide N-methyltransferase (Homo sapiens) (UniProt P40261).
T2 sequence (whole entry): T1 sequence (P40261 whole entry)
The settings on record: K562, Lysate.

Consider `NC(=O)c1cc(C#C[C@@H](CC[C@H](N)C(=O)O)C[C@H]2O[C@@H](n3cnc4c(N)ncnc43)[C@H](O)[C@@H]2O)ccc1C(F)(F)F`, for which the Ki in series [1] is 2.63 nM.

In the case of `NC(=O)c1cccc(C#C[C@@H](CC[C@H](N)C(=O)O)C[C@H]2O[C@@H](n3cnc4c(N)ncnc43)[C@H](O)[C@@H]2O)n1`, the Ki in series [1] is 6.76 nM.

Regarding `NC(=O)c1cccc(CCN(CCC[C@H](N)C(=O)O)C[C@H]2O[C@@H](n3cnc4c(N)ncnc43)[C@H](O)[C@@H]2O)c1`, in series [1], the Ki was 89.1 nM.

As for `Nc1ncnc2c1ncn2[C@@H]1O[C@H](C[C@@H](C#Cc2ccc3c(c2)C(=O)NC3)CC[C@H](N)C(=O)O)[C@@H](O)[C@H]1O`, the Ki in series [1] was 1860 nM.

For `CO[C@@H]1O[C@H](C[C@@H](C#Cc2cccc(C(N)=O)c2)CC[C@H](N)C(=O)O)[C@@H](O)[C@H]1O`, the Ki in series [1] was 77600 nM.

For the compound `COC(=O)[C@@H](N)CC[C@H](C#Cc1cccc(C(N)=O)c1)C[C@H]1O[C@@H](n2cnc3c(N)ncnc32)[C@H](O)[C@@H]1O`, the Ki in series [1] was 437 nM. In the series with U2OS, the Activity entry is “Non-Toxic”. Besides, the permeability result in series [2] was “Impermeable”.

In the case of `NC(=O)c1cccc(C#C[C@@H]2C[C@H]2[C@H]2O[C@@H](n3cnc4c(N)ncnc43)[C@H](O)[C@@H]2O)c1`, in series [1], the Ki was 3890 nM.

For the compound `Nc1cccc2c(C#C[C@@H](CC[C@H](N)C(=O)O)C[C@H]3O[C@@H](n4cnc5c(N)ncnc54)[C@H](O)[C@@H]3O)cccc12`, the Ki in series [1] was 3720 nM.

Consider `NC(=O)c1cc(C#C[C@@H](CC[C@H](N)C(=O)O)C[C@H]2O[C@@H](n3cnc4c(N)ncnc43)[C@H](O)[C@@H]2O)ccn1`, for which the Ki in series [1] was 8.91 nM.

For the compound `Nc1ncnc2c1ncn2[C@@H]1O[C@H](C[C@@H](C#Cc2ccccc2)CC[C@H](N)C(=O)O)[C@@H](O)[C@H]1O`, the Ki in series [1] is 12600 nM.

Regarding `NC(=O)CCC[C@H](C#Cc1cccc(C(N)=O)c1)C[C@H]1O[C@@H](n2cnc3c(N)ncnc32)[C@H](O)[C@@H]1O`, in series [1], the Ki is 1050 nM.

On to `NC(=O)c1cccc(C#C[C@@H](CC[C@H](N)C(N)=O)C[C@H]2O[C@@H](n3cnc4c(N)ncnc43)[C@H](O)[C@@H]2O)c1`, for which, in series [1], the Ki is 17 nM. Moreover, in the series with U2OS, the Activity result is “Non-Toxic”. In addition, the permeability entry in series [2] was “Impermeable”.

Regarding `NC(=O)c1ccc(C#C[C@@H](CC[C@H](N)C(=O)O)C[C@H]2O[C@@H](n3cnc4c(N)ncnc43)[C@H](O)[C@@H]2O)cc1`, in series [1], the Ki is 5750 nM.

On to `NC(=O)c1cc(C#C[C@@H](CC[C@H](N)C(=O)O)C[C@H]2O[C@@H](n3cnc4c(N)ncnc43)[C@H](O)[C@@H]2O)ccc1F`, for which the Ki in series [1] is 1.86 nM.

Regarding `NC(=O)c1cccc(C#C[C@@H](CCC[C@H](N)C(=O)O)C[C@H]2O[C@@H](n3cnc4c(N)ncnc43)[C@H](O)[C@@H]2O)c1`, in series [1], the Ki was 0.24 nM.

As for `NC(=O)c1cccc(CC[C@@H](CC[C@H](N)C(=O)O)C[C@H]2O[C@@H](n3cnc4c(N)ncnc43)[C@H](O)[C@@H]2O)c1`, the Ki in series [1] is 4.68 nM.

Consider `NC(=O)c1cccc(CC[C@H](CC[C@H](N)C(=O)O)C[C@H]2O[C@@H](n3cnc4c(N)ncnc43)[C@H](O)[C@@H]2O)c1`, for which the Ki in series [1] is 107 nM.

As for `NC(=O)NCC[C@H](C#Cc1cccc(C(N)=O)c1)C[C@H]1O[C@@H](n2cnc3c(N)ncnc32)[C@H](O)[C@@H]1O`, the Ki in series [1] is 75.9 nM. Further, in the series with U2OS, the Activity result is “Non-Toxic”. Besides, the permeability result in series [2] is reported as “Impermeable”. The ΔTm in series [3] was 5 °C.

Turning to `NC(=O)c1ccccc1C#C[C@@H](CC[C@H](N)C(=O)O)C[C@H]1O[C@@H](n2cnc3c(N)ncnc32)[C@H](O)[C@@H]1O`, the Ki in series [1] is 19500 nM.

Take `Nc1ncnc2c1ncn2[C@@H]1O[C@H](CCCC[C@H](N)C(=O)O)[C@@H](O)[C@H]1O`: in series [1], the Ki was 21400 nM.

As to `C#C[C@@H](CC[C@H](N)C(=O)O)C[C@H]1O[C@@H](n2cnc3c(N)ncnc32)[C@H](O)[C@@H]1O`, in series [1], the Ki is 47900 nM.

In the case of `NC(=O)c1cc(C#C[C@@H](CC[C@H](N)C(=O)O)C[C@H]2O[C@@H](n3cnc4c(N)ncnc43)[C@H](O)[C@@H]2O)c2c(c1)OCO2`, the Ki in series [1] is 32.4 nM.

For the compound `NCCC[C@H](C#Cc1cccc(C(N)=O)c1)C[C@H]1O[C@@H](n2cnc3c(N)ncnc32)[C@H](O)[C@@H]1O`, the Ki in series [1] was 57.5 nM. Also, in the series on U2OS, the Activity result is “Non-Toxic”. The permeability in series [2] was 1.3 ×10⁻⁶ cm/s.

Regarding `Cc1ccc(C#C[C@@H](CC[C@H](N)C(=O)O)C[C@H]2O[C@@H](n3cnc4c(N)ncnc43)[C@H](O)[C@@H]2O)cc1C(N)=O`, the Ki in series [1] is 3.39 nM.

Consider `Nc1ncnc2c1ncn2[C@@H]1O[C@H](C[C@@H](C#Cc2ccc3c(c2)C(=O)NCC3)CC[C@H](N)C(=O)O)[C@@H](O)[C@H]1O`, for which, in series [1], the Ki was 55 nM.

For `NC(=O)c1cncc(C#C[C@@H](CC[C@H](N)C(=O)O)C[C@H]2O[C@@H](n3cnc4c(N)ncnc43)[C@H](O)[C@@H]2O)c1`, the Ki in series [1] was 5.01 nM.

In the case of `NC(=O)c1cccc(CCN(CC[C@H](N)C(=O)O)C[C@H]2O[C@@H](n3cnc4c(N)ncnc43)[C@H](O)[C@@H]2O)c1`, in series [1], the Ki was 912 nM.

For `NC(=O)c1cccc(C#CCC[C@H]2O[C@@H](n3cnc4c(N)ncnc43)[C@H](O)[C@@H]2O)c1`, in series [1], the Ki is 263 nM.

`NC(=O)c1cccc(C#C[C@H](CC[C@H](N)C(=O)O)C[C@H]2O[C@@H](n3cnc4c(N)ncnc43)[C@H](O)[C@@H]2O)c1`: the Ki in series [1] is 123 nM.

For `NC(=O)c1ccnc(C#C[C@@H](CC[C@H](N)C(=O)O)C[C@H]2O[C@@H](n3cnc4c(N)ncnc43)[C@H](O)[C@@H]2O)c1`, in series [1], the Ki is 35.5 nM.

Turning to `NC(=O)c1cc(C#C[C@@H](CC[C@H](N)C(=O)O)C[C@H]2O[C@@H](n3cnc4c(N)ncnc43)[C@H](O)[C@@H]2O)ccc1Cl`, the Ki in series [1] was 0.191 nM.

Regarding `Nc1ncnc2c1ncn2[C@@H]1O[C@H](C[C@@H](C#Cc2cccc(S(N)(=O)=O)c2)CC[C@H](N)C(=O)O)[C@@H](O)[C@H]1O`, the Ki in series [1] is 195 nM.

On to `NC(=O)c1cccc(C#C[C@@H](CCCC(=O)O)C[C@H]2O[C@@H](n3cnc4c(N)ncnc43)[C@H](O)[C@@H]2O)c1`, for which the Ki in series [1] was 22400 nM.

For orientation: ΔTm means the change in melting temperature against a reference sample.
